Measured values: PubChem BioAssay (NCI)
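Each compound was tested at five concentrations against cells in 96-well plates for 48 hours. TGI: total growth inhibition.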

Legend:
Assay in all cases: DTP human tumour cell line panel, 48 h
HS 578T breast = tested on: HS 578T breast
SK-MEL-2 melanoma = tested on: SK-MEL-2 melanoma
OVCAR-4 ovarian = tested on: OVCAR-4 ovarian
OVCAR-5 ovarian = tested on: OVCAR-5 ovarian
T-47D breast = tested on: T-47D breast
ACHN renal = tested on: ACHN renal
SK-MEL-28 melanoma = tested on: SK-MEL-28 melanoma
KM12 colon = tested on: KM12 colon
UO-31 renal = tested on: UO-31 renal
A549 NSCLC = tested on: A549 NSCLC

NNC(=O)CSc1nc2ccccc2c(=O)n1N showed a TGI (HS 578T breast) of 98.8 µM, a TGI (SK-MEL-2 melanoma) of 66.9 µM and a TGI (OVCAR-4 ovarian) greater than 100 µM. The TGI (OVCAR-5 ovarian) was greater than 100 µM, the TGI (T-47D breast) was greater than 100 µM and the TGI (ACHN renal) was 99.1 µM. It also gave a TGI (SK-MEL-28 melanoma) greater than 100 µM, a TGI (KM12 colon) greater than 100 µM and a TGI (UO-31 renal) greater than 100 µM. It also gave a TGI (A549 NSCLC) greater than 100 µM.

Compound CC(=O)[C@@]1(O)CC[C@H]2[C@@H]3C[C@H](C)C4=CC(=O)C=C[C@]4(C)[C@@]3(F)[C@@H](O)C[C@@]21C has a TGI (HS 578T breast) greater than 100 µM, a TGI (SK-MEL-2 melanoma) greater than 100 µM and a TGI (OVCAR-4 ovarian) greater than 100 µM. It also gave a TGI (OVCAR-5 ovarian) greater than 100 µM, a TGI (T-47D breast) greater than 100 µM and a TGI (ACHN renal) greater than 100 µM. It also gave a TGI (SK-MEL-28 melanoma) greater than 100 µM, a TGI (KM12 colon) greater than 100 µM and a TGI (UO-31 renal) greater than 100 µM. It also gave a TGI (A549 NSCLC) greater than 100 µM.

With CCC1(C)C=Cc2c(cc(O)c3c(=O)c4ccccc4n(C)c23)O1 (stereo not given) the TGI (HS 578T breast) was greater than 10 µM, the TGI (SK-MEL-2 melanoma) was greater than 10 µM and the TGI (OVCAR-4 ovarian) was greater than 10 µM. For the same compound, the TGI (OVCAR-5 ovarian) was greater than 10 µM, the TGI (T-47D breast) was greater than 10 µM and the TGI (ACHN renal) was greater than 10 µM. The TGI (SK-MEL-28 melanoma) was greater than 10 µM, the TGI (KM12 colon) was greater than 10 µM and the TGI (UO-31 renal) was greater than 10 µM. It also gave a TGI (A549 NSCLC) greater than 10 µM.

Work on CC(=O)OCC1OC(n2c3c(cc(C#N)c2=S)CCCCC3)C(OC(C)=O)C(OC(C)=O)C1OC(C)=O (stereo not given) yielded a TGI (HS 578T breast) greater than 100 µM, a TGI (SK-MEL-2 melanoma) greater than 100 µM and a TGI (OVCAR-4 ovarian) greater than 100 µM. The TGI (OVCAR-5 ovarian) was greater than 100 µM, the TGI (T-47D breast) was greater than 100 µM and the TGI (ACHN renal) was greater than 100 µM. The TGI (SK-MEL-28 melanoma) was greater than 100 µM, the TGI (KM12 colon) was greater than 100 µM and the TGI (UO-31 renal) was greater than 100 µM. It also gave a TGI (A549 NSCLC) greater than 100 µM.

With O=c1oc2ccc([N+](=O)[O-])cc2c(Nc2ccc3c(c2)Oc2ccccc2O3)c1[N+](=O)[O-] the TGI (HS 578T breast) was greater than 100 µM, the TGI (SK-MEL-2 melanoma) was 44.2 µM and the TGI (OVCAR-4 ovarian) was greater than 100 µM. It also gave a TGI (OVCAR-5 ovarian) greater than 100 µM, a TGI (T-47D breast) greater than 100 µM and a TGI (ACHN renal) greater than 100 µM. It also gave a TGI (SK-MEL-28 melanoma) greater than 100 µM, a TGI (KM12 colon) greater than 100 µM and a TGI (UO-31 renal) greater than 100 µM. For the same compound, the TGI (A549 NSCLC) was greater than 100 µM.

For CC(=O)O[C@H]1CC[C@@]2(C)C(=CC[C@H]3[C@@H]4C[C@H](N5CCOCC5)[C@H](OC(C)=O)[C@@]4(C)CC[C@@H]32)C1, the TGI (HS 578T breast) was greater than 100 µM, the TGI (SK-MEL-2 melanoma) was greater than 100 µM and the TGI (OVCAR-4 ovarian) was greater than 100 µM. The TGI (OVCAR-5 ovarian) was greater than 100 µM, the TGI (T-47D breast) was greater than 100 µM and the TGI (ACHN renal) was greater than 100 µM. The TGI (SK-MEL-28 melanoma) was greater than 100 µM, the TGI (KM12 colon) was greater than 100 µM and the TGI (UO-31 renal) was greater than 100 µM. It also gave a TGI (A549 NSCLC) greater than 100 µM.

With CC(C(O)Cc1ccccc1)N(C)N=Nc1ccc([N+](=O)[O-])cc1 (stereo not given) the TGI (HS 578T breast) was 55.6 µM, the TGI (SK-MEL-2 melanoma) was 40.6 µM and the TGI (OVCAR-4 ovarian) was greater than 100 µM. For the same compound, the TGI (OVCAR-5 ovarian) was 76.1 µM, the TGI (T-47D breast) was 74.5 µM and the TGI (ACHN renal) was 77 µM. It also gave a TGI (SK-MEL-28 melanoma) of 39.9 µM, a TGI (KM12 colon) of 53.2 µM and a TGI (UO-31 renal) of 31.8 µM. For the same compound, the TGI (A549 NSCLC) was 72 µM.

Compound C[N+]12CCCCC1C(CN1C(=O)Cc3c4ccccc4c(c4ccccc34)CC1=O)CCC2 (stereo not given) has a TGI (HS 578T breast) greater than 100 µM, a TGI (SK-MEL-2 melanoma) greater than 100 µM and a TGI (OVCAR-4 ovarian) greater than 100 µM. It also gave a TGI (OVCAR-5 ovarian) greater than 100 µM, a TGI (T-47D breast) greater than 100 µM and a TGI (ACHN renal) greater than 100 µM. For the same compound, the TGI (SK-MEL-28 melanoma) was greater than 100 µM, the TGI (KM12 colon) was greater than 100 µM and the TGI (UO-31 renal) was greater than 100 µM. The TGI (A549 NSCLC) was greater than 100 µM.

Compound C=C1C(=O)C=C[C@]2(C)CC[C@H]3C(=C)C(=O)O[C@@H]3[C@@H]12 has a TGI (HS 578T breast) of 48.8 µM, a TGI (SK-MEL-2 melanoma) of 6.99 µM and a TGI (OVCAR-4 ovarian) of 5.78 µM. For the same compound, the TGI (OVCAR-5 ovarian) was 3 µM, the TGI (T-47D breast) was 20.7 µM and the TGI (ACHN renal) was 9.59 µM. For the same compound, the TGI (SK-MEL-28 melanoma) was 4.04 µM, the TGI (KM12 colon) was 3.53 µM and the TGI (UO-31 renal) was 9 µM. For the same compound, the TGI (A549 NSCLC) was 29.8 µM.

With Cn1c2ccccc2c(=NNc2cccc(C(=O)O)c2)c2ccccc21 the TGI (HS 578T breast) was 64.7 µM, the TGI (SK-MEL-2 melanoma) was 35.4 µM and the TGI (OVCAR-4 ovarian) was 40.3 µM. The TGI (OVCAR-5 ovarian) was 41.6 µM, the TGI (T-47D breast) was 40.9 µM and the TGI (ACHN renal) was 35.5 µM. For the same compound, the TGI (SK-MEL-28 melanoma) was 35.7 µM, the TGI (KM12 colon) was 47.5 µM and the TGI (UO-31 renal) was 46.3 µM. For the same compound, the TGI (A549 NSCLC) was 27.3 µM.

CCC/C(Cl)=N\OC(=O)Nc1ccc(OC(F)(F)F)cc1 gave a TGI (HS 578T breast) greater than 70.7 µM, a TGI (SK-MEL-2 melanoma) of 32.9 µM and a TGI (OVCAR-4 ovarian) of 39.8 µM. It also gave a TGI (OVCAR-5 ovarian) of 35.9 µM, a TGI (T-47D breast) of 7.65 µM and a TGI (ACHN renal) of 4.41 µM. It also gave a TGI (SK-MEL-28 melanoma) of 41.9 µM, a TGI (KM12 colon) of 30.8 µM and a TGI (UO-31 renal) of 23.3 µM. For the same compound, the TGI (A549 NSCLC) was 42.3 µM.

NC(CCC(=O)NC(CSCC1C(=O)Nc2ccccc21)C(=O)NCC(=O)O)C(=O)O (stereo not given) gave a TGI (HS 578T breast) greater than 100 µM, a TGI (SK-MEL-2 melanoma) of 25.4 µM and a TGI (OVCAR-4 ovarian) greater than 22.2 µM. It also gave a TGI (OVCAR-5 ovarian) of 31.1 µM, a TGI (T-47D breast) greater than 23.3 µM and a TGI (ACHN renal) of 20 µM. For the same compound, the TGI (SK-MEL-28 melanoma) was 14.5 µM, the TGI (KM12 colon) was greater than 32.9 µM and the TGI (UO-31 renal) was 1.74 µM. It also gave a TGI (A549 NSCLC) of 19.7 µM.

CN1[C@@H]2C[C@@H](OC(=O)[C@H](CO)c3ccccc3)C[C@H]1[C@@H]1O[C@@H]12 showed a TGI (HS 578T breast) greater than 100 µM, a TGI (SK-MEL-2 melanoma) greater than 100 µM and a TGI (OVCAR-4 ovarian) greater than 100 µM. For the same compound, the TGI (OVCAR-5 ovarian) was greater than 100 µM, the TGI (T-47D breast) was greater than 100 µM and the TGI (ACHN renal) was greater than 100 µM. The TGI (SK-MEL-28 melanoma) was greater than 100 µM, the TGI (KM12 colon) was greater than 100 µM and the TGI (UO-31 renal) was greater than 100 µM. The TGI (A549 NSCLC) was greater than 100 µM.

With C=C([C@@]1(O)C[C@H]2[C@H](CCC2(OC)OC)[C@@H]2c3ccccc3O[C@@H]21)[Si](C)(C)C the TGI (HS 578T breast) was greater than 100 µM, the TGI (SK-MEL-2 melanoma) was greater than 100 µM and the TGI (OVCAR-4 ovarian) was greater than 100 µM. It also gave a TGI (OVCAR-5 ovarian) greater than 100 µM, a TGI (T-47D breast) greater than 100 µM and a TGI (ACHN renal) greater than 100 µM. The TGI (SK-MEL-28 melanoma) was greater than 100 µM, the TGI (KM12 colon) was greater than 100 µM and the TGI (UO-31 renal) was greater than 100 µM. For the same compound, the TGI (A549 NSCLC) was greater than 100 µM.

O=C(O)/C=c1/c2ccccc2n2nc3ccccc3c12 was tested, and the TGI (HS 578T breast) was 78.8 µM, the TGI (SK-MEL-2 melanoma) was greater than 100 µM and the TGI (OVCAR-4 ovarian) was 70.1 µM. The TGI (OVCAR-5 ovarian) was greater than 100 µM, the TGI (T-47D breast) was greater than 100 µM and the TGI (ACHN renal) was 66.1 µM. For the same compound, the TGI (SK-MEL-28 melanoma) was greater than 100 µM, the TGI (KM12 colon) was 80.7 µM and the TGI (UO-31 renal) was greater than 100 µM. It also gave a TGI (A549 NSCLC) greater than 100 µM.

C=CCOc1ccc(C2(O)c3ccccc3C3=NCCCN32)cc1 (stereo not given) was tested, and the TGI (HS 578T breast) was greater than 100 µM, the TGI (SK-MEL-2 melanoma) was 47 µM and the TGI (OVCAR-4 ovarian) was greater than 100 µM. For the same compound, the TGI (OVCAR-5 ovarian) was greater than 100 µM, the TGI (T-47D breast) was greater than 74.6 µM and the TGI (ACHN renal) was greater than 72.2 µM. For the same compound, the TGI (SK-MEL-28 melanoma) was 59.3 µM, the TGI (KM12 colon) was greater than 100 µM and the TGI (UO-31 renal) was greater than 100 µM. The TGI (A549 NSCLC) was greater than 100 µM.
